Patent publication US10577322B2, “5-methoxytryptophan and its derivatives and uses thereof” (National Health Research Institutes, priority 2015, dated 2020)

Assays:
Myeloperoxidase (MPO) = assay: MPO activity assay in lung tissues; assay type: in vivo, mice; settings: 5-MTP 23.4 mg/kg, 16 h
Experimental: Myeloperoxidase (MPO) activity of lung tissue was assayed by Myeloperoxidase fluorometric detection kit (Enzo Life Sciences). In brief, lung tissue specimens were homogenized by Tissuelyser II (Qiagen) in tissue protein extraction buffer (pH 7.4 25 mM Tris buffer, 150 mM NaCl, 0.5% sodium deoxycholate, 2% NP-40 and 0.2% SDS), and centrifuged at 12,000×g for […] at 4° C. The supernatants were removed and the pellets were homogenized by Tissuelyser II for 30 seconds in 1 ml assay buffer with 0.5% hexadecyltrimethylammonium, and then samples were frozen, thawed three times, andcentrifuged at 8,000×g for 20 min. Collected supernatants and standard were mixed with reaction cocktail (50 μM detection reagent and 20 μM hydrogen peroxide in 1X assay buffer at room temperature in the dark. After 30 min incubation, MPO activity was determined by measuring the fluorescence intensity at excitation 530 nm and emission at 600 nm in a fluorescent plate reader.
In addition, MPO activity was determined in lung tissues of mice treated with saline or LPS in the presence or absence of 5-MTP (23.4 mg/kg) for 16 h (n=6 mice/group).

vascular calcification = assay: High fat diet-induced arterial calcification in ApoE-deficient mice (von Kossa); assay type: in vivo; settings: 23.4 mg/kg 3 times a week i.p., 20 weeks
Experimental: ApoE-deficient mice were fed with on a Western high fat diet containing 1.25% cholesterol and 21% fat (Research Diets) starting at 6 weeks of age. The mice were simultaneously treated with vehicle (PBS) or 5-MTP (23.4 mg/kg body weight, 3 times a week) by intraperitoneal injection. After 20 weeks, the aortic trees were dissected and lesions examined in the aortic arch and its branches. Vascular calcifications in the aortic root were evaluated by von Kossa staining.
Vascular smooth muscle cell (VSMC) calcification is the major phenomenon to induce atherosclerotic vascular calcification in cardiovascular disease (CVD). We next investigated the effect of 5-MTP derivatives on VSMC calcification.

NF-κB = NF-κB promoter-luciferase assay in RAW264.7 cells; assay type: cell-based, mouse; settings: LPS 8 h
Experimental: RAW264.7 macrophages were cotransfected with COX-2 promoter-luciferase, IL-6 promoter-luciferase constructs as previously described (Lee, G. L., et al.) or p5xNF-κB-luciferase (Stratagene) and pcDNA3.1-β-galactosidase plasmids using FuGENE 6 (Roche). After overnight transfection, the cells were incubated with or without LPS in the presence or absence of 5-MTP for 8 h. After treatment, cells were lysed, and luciferase activity was measured using an assay kit (Promega). β-galactosidase activity was used to normalize the data.
After pretreating RAW264.7 cells with different concentrations of 5-MTP for 30 min, cells were stimulated with LPS for 8 h. NF-κB promoter activity as measured by NF-κB promoter-luciferase assay.

LPS-induced endotoxemia = assay type: in vivo
Experimental: C57BL/6 mice (6-8 wks old) were treated intraperitoneally with saline or with different concentrations of 5-MTP (23.4 or 100 mg/kg) for 30 min before intraperitoneal administration of LPS (60 mg/kg). Animals were monitored for survival and other clinical signs including ruffled fur, lethargy, diarrhea, and body weight loss. Some animals were sacrificed at different times after LPS injection. Blood samples, peritoneal exudates, lungs, and spleens were collected. All mouse experiments were approved by the institutional Animal Care and Use Committee, National Health Research Institutes.
Since suppression of 5-MTP by endotoxemia could contribute to uncontrolled macrophage overproduction of proinflammatory cytokines and mediators, we determined whether exogenous 5-MTP administration rescues mice from LPS-induced systemic inflammation, organ damage and mortality. Mice were injected with saline, 5-MTP (23.4 mg/kg), 5-MTPE (25 mg/kg) or vehicle for 30 min, followed by LPS (60 mg/kg) (saline, n=25; 5-MTP, n=7; 5-MTPE, n=7; LPS, n=30; LPS+5-MTP, n=25; LPS+5-MTPE, n=25). Survival was monitored during the next 72 h. *P<0.001 compared to LPS treatment.

A549 subcutaneous tumor = assay: Tumor xenograft experiment (A549 s.c. in SCID mice); assay type: in vivo; settings: 100 mg/kg intraperitoneal twice weekly; for subcutaneous tumor volume: 7 weeks
Experimental: Six-week-old male CB-17 SCID mice, purchased from BioLASCO, were housed in a daily cycle of 12-h light and 12-h darkness and pathogen-free conditions at 26° C. at the Animal Center of the National Health Research Institutes. A549-luc-C8 cells (Caliper Life Sciences), cultured in RPMI-1640 supplemented with 10% FBS, were pretreated with 100 μM 5-MTP, 100 μM 5-MTPE or vehicle for 5 h and were inoculated into the flank of mice subcutaneously (s.c.) (5×10^6 cells/mouse). The 5-MTP-, or 5-MTPE-treated mice (n=10) were injected with 100 mg 5-MTP or 5-MTPE /kg body weight intraperitoneally twice weekly. The vehicle group (n=10) was injected with vehicle (0.033 N HCl in RPMI medium, neutralized with NaOH) twice weekly. The size of s.c. tumors were caliper-measured twice weekly. The tumor volume was calculated according to the formula of length×width×width/2. The tumor growth was also monitored weekly by an IVIS spectrum imaging system. Mice were euthanized at day 52. Subcutaneous tumors and lungs were removed and fixed with 10% Formalin. Nodules on each lobe of the lungs were counted. Histology of the nodules was examined under microscopy by tissue section and H&E staining. The animals' care was in accordance with institutional guidelines and the protocol of in vivo experiments was approved by the Institutional Animal Care and Utilization Committee of the National Health Research Institutes.
In addition, A549 (5×10^6 cells) was injected subcutaneously into the flank of SCID-Beige mice. 10 mice each received intraperitoneal injection of 5-MTP (100 mg/kg), 5-MTPE (100 mg/kg) or vehicle twice weekly. Caliper measurement of the subcutaneous tumor volume periodically for 7 weeks. […] The average tumor volume at 7-week in the 5-MTP treated group was ˜50% of that in the control group.

[1] = 5-MTP 23.4 mg/kg 30 min before LPS 60 mg/kg

Structure (SMILES) | lung MPO activity (Myeloperoxidase (MPO)) | high fat diet-induced vascular calcification (vascular calcification) | NF-κB promoter activity (transactivation) (NF-κB) | endotoxemic mice died at day 3 (LPS-induced endotoxemia; [1]) [%] | mice died at day 1 (LPS-induced endotoxemia; [1]) | average tumor volume at 7-week, of that in the control group (A549 subcutaneous tumor) [%] | subcutaneous tumor volume (A549 subcutaneous tumor) | protective capacity in LPS-induced lethal endotoxemia (LPS-induced endotoxemia; 5-MTPE 25 mg/kg 30 min before LPS 60 mg/kg, 72 h) [%]
COc1ccc2[nH]cc(C[C@H](N)C(=O)O)c2c1 [5-MTP, 5-methoxytryptophan] | reduced neutrophil infiltration to the basal level | prevented | suppressed NF-κB transactivation in a concentration-dependent manner | 20 | none | ~50 | suppressed tumor volume in a time-dependent manner | –
COC(=O)C(N)Cc1c[nH]c2ccc(OC)cc12 (stereo not drawn) [5-MTPE, ester-5-MTP] | – | – | – | – | – | – | suppressed tumor volume in a time-dependent manner | 100
